Data reported in US12209087B2, “AKT1 modulators” (Alterome Therapeutics, Inc., priority 2022, dated 2025).

Biological target: T1, full length AKT E17K (Homo sapiens, UniProt P31749, E17K)
T1 construct: host or cells: HEK-293 (ATCC CRL-1573)
Test: NanoBRET Target Engagement (TE) Assay
Assay type: cell-based
Details: competitive tracer displacement in living cells, read-out: AKT1 E17K IC50
Outline: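 Compound and tracer incubated 2 h before luminescence at donor 450 nm and acceptor 600 nm, with extracellular signal inhibited. EC50 by sigmoidal variable-slope regression.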

T1 sequence (P31749 whole entry E17K): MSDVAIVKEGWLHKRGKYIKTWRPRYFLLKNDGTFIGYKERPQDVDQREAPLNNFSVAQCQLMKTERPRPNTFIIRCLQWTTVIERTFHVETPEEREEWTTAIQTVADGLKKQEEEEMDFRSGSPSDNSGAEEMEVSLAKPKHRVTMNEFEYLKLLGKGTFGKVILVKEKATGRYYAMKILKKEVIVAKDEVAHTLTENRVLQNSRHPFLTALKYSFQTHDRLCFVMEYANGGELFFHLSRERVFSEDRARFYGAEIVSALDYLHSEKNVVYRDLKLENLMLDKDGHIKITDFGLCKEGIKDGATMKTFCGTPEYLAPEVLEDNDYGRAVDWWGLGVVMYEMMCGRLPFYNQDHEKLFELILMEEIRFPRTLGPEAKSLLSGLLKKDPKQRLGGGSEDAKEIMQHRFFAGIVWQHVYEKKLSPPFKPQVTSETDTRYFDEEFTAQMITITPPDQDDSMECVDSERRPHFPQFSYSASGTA

N#Cc1cnccc1C(=O)N1CCN(Cc2ccc(-n3c(-c4cccnc4N)nc4ccc(-c5ccccc5)nc43)cc2)CC1 [Example 144, 4-(4-(4-(2-(2-Aminopyridin-3-yl)-5-phenyl-3H-imidazo[4,5-b]pyridin-3-yl)benzyl)piperazine-1-carbonyl)nicotinonitrile] was tested, and the IC50 was 0.6 to 10 µM.

N#Cc1ccncc1C(=O)N1CCN(Cc2ccc(-n3c(-c4cccnc4N)nc4ccc(-c5ccccc5)nc43)cc2)CC1 [Example 145, 3-(4-(4-(2-(2-Aminopyridin-3-yl)-5-phenyl-3H-imidazo[4,5-b]pyridin-3-yl)benzyl)piperazine-1-carbonyl)isonicotinonitrile] showed an IC50 of 0.6 to 10 µM.

In the case of N#Cc1cccnc1C(=O)N1CCN(Cc2ccc(-n3c(-c4cccnc4N)nc4ccc(-c5ccccc5)nc43)cc2)CC1 [Example 146, 2-(4-(4-(2-(2-Aminopyridin-3-yl)-5-phenyl-3H-imidazo[4,5-b]pyridin-3-yl)benzyl)piperazine-1-carbonyl)nicotinonitrile], the IC50 is reported as 0.6 to 10 µM.

Work on N#Cc1ccnc(C(=O)NCc2ccc(-n3c(-c4cccnc4N)nc4cccnc43)cc2)c1 [Example 147, N-(4-(2-(2-Aminopyridin-3-yl)-3H-imidazo[4,5-b]pyridin-3-yl)benzyl)-4-cyanopicolinamide] yielded an IC50 of 0.6 to 10 µM.

With N#Cc1nccc(C(=O)NCc2ccc(-n3c(-c4cccnc4N)nc4cccnc43)cc2)n1 [Example 148, N-(4-(2-(2-Aminopyridin-3-yl)-3H-imidazo[4,5-b]pyridin-3-yl)benzyl)-2-cyanopyrimidine-4-carboxamide] the IC50 was 0.6 to 10 µM.

For N#Cc1ccnc(C(=O)N2CCN(Cc3ccc(-n4c(-c5cccnc5N)nc5cccnc54)cc3)CC2)c1 [Example 149, 2-(4-(4-(2-(2-Aminopyridin-3-yl)-3H-imidazo[4,5-b]pyridin-3-yl)benzyl)piperazine-1-carbonyl)isonicotinonitrile], the IC50 was 0.6 to 10 µM.

Compound N#Cc1ccnc(C(=O)NC2CCN(Cc3ccc(-n4c(-c5cccnc5N)nc5ccc(-c6ccccc6)nc54)cc3)CC2)c1 [Example 150, N-(1-(4-(2-(2-Aminopyridin-3-yl)-5-phenyl-3H-imidazo[4,5-b]pyridin-3-yl)benzyl)piperidin-4-yl)-4-cyanopicolinamide] has an IC50 of 0.06 to 0.6 µM.

N#Cc1nccc(C(=O)NC2CCN(Cc3ccc(-n4c(-c5cccnc5N)nc5ccc(-c6ccccc6)nc54)cc3)CC2)n1 [Example 151, N-(1-(4-(2-(2-Aminopyridin-3-yl)-5-phenyl-3H-imidazo[4,5-b]pyridin-3-yl)benzyl)piperidin-4-yl)-2-cyanopyrimidine-4-carboxamide] was tested, and the IC50 was < 0.015 µM.

Compound N#Cc1nccc(C(=O)N2CCN(Cc3ccc(-n4c(-c5cccnc5N)nc5cccnc54)cc3)CC2)n1 [Example 152, 4-(4-(4-(2-(2-aminopyridin-3-yl)-3H-imidazo[4,5-b]pyridin-3-yl)benzyl)piperazine-1-carbonyl)pyrimidine-2-carbonitrile] has an IC50 of 0.06 to 0.6 µM.

N#Cc1ncccc1C(=O)N1CCN(Cc2ccc(-n3c(-c4cccnc4N)nc4cccnc43)cc2)CC1 [Example 153, 3-(4-(4-(2-(2-Aminopyridin-3-yl)-3H-imidazo[4,5-b]pyridin-3-yl)benzyl)piperazine-1-carbonyl)picolinonitrile] was tested, and the IC50 was 0.6 to 10 µM.

For N#Cc1cnccc1C(=O)N1CCN(Cc2ccc(-n3c(-c4cccnc4N)nc4cccnc43)cc2)CC1 [Example 154, 4-(4-(4-(2-(2-Aminopyridin-3-yl)-3H-imidazo[4,5-b]pyridin-3-yl)benzyl)piperazine-1-carbonyl)nicotinonitrile], the IC50 was 0.6 to 10 µM.

Compound N#Cc1ccncc1C(=O)N1CCN(Cc2ccc(-n3c(-c4cccnc4N)nc4cccnc43)cc2)CC1 [Example 155, 3-(4-(4-(2-(2-Aminopyridin-3-yl)-3H-imidazo[4,5-b]pyridin-3-yl)benzyl)piperazine-1-carbonyl)isonicotinonitrile] has an IC50 of 0.6 to 10 µM.

Compound CN(c1ccnc(C#N)n1)C1CCN(Cc2ccc(-n3c(-c4cccnc4N)nc4ccc(-c5ccccc5)nc43)cc2)CC1 [Example 156, 4-((1-(4-(2-(2-Aminopyridin-3-yl)-5-phenyl-3H-imidazo[4,5-b]pyridin-3-yl)benzyl)piperidin-4-yl)(methyl)amino)pyrimidine-2-carbonitrile] has an IC50 of 0.015 to 0.06 µM.

In the case of N#Cc1ccc(NC2CCN(Cc3ccc(-n4c(-c5cccnc5N)nc5cccnc54)cc3)CC2)cn1 [Example 157, 5-((1-(4-(2-(2-aminopyridin-3-yl)-3H-imidazo[4,5-b]pyridin-3-yl)benzyl)piperidin-4-yl)amino)picolinonitrile], the IC50 is reported as 0.6 to 10 µM.

In the case of N#Cc1cc(NC2CCN(Cc3ccc(-n4c(-c5cccnc5N)nc5ccc(-c6ccccc6)nc54)cc3)CC2)cnn1 [Example 158, 5-((1-(4-(2-(2-Aminopyridin-3-yl)-5-phenyl-3H-imidazo[4,5-b]pyridin-3-yl)benzyl)piperidin-4-yl)amino)pyridazine-3-carbonitrile], the IC50 is reported as 0.015 to 0.06 µM.

Work on N#Cc1cc(N2CCN(Cc3ccc(-n4c(-c5cccnc5N)nc5ccc(-c6ccccc6)nc54)cc3)CC2)cnn1 [Example 159, 5-(4-(4-(2-(2-Aminopyridin-3-yl)-5-phenyl-3H-imidazo[4,5-b]pyridin-3-yl)benzyl)piperazin-1-yl)pyridazine-3-carbonitrile] yielded an IC50 of 0.015 to 0.06 µM.

Work on N#Cc1nccnc1C(=O)N1CCN(Cc2ccc(-n3c(-c4cccnc4N)nc4ccc(-c5ccccc5)nc43)cc2)CC1 [Example 163, 3-(4-(4-(2-(2-aminopyridin-3-yl)-5-phenyl-3H-imidazo[4,5-b]pyridin-3-yl)benzyl)piperazine-1-carbonyl)pyrazine-2-carbonitrile] yielded an IC50 of 0.06 to 0.6 µM.

For N#Cc1nccnc1C(=O)N1CCN(Cc2ccc(-n3c(-c4cccnc4N)nc4cccnc43)cc2)CC1 [Example 164, 3-(4-(4-(2-(2-Aminopyridin-3-yl)-3H-imidazo[4,5-b]pyridin-3-yl)benzyl)piperazine-1-carbonyl)pyrazine-2-carbonitrile], the IC50 was 0.6 to 10 µM.

For N#Cc1ccc(C(=O)NC2CCN(Cc3ccc(-n4c(-c5cccnc5N)nc5cc(-c6ccccc6)cnc54)cc3)CC2)cn1 [Example 165, N-(1-(4-(2-(2-aminopyridin-3-yl)-6-phenyl-3H-imidazo[4,5-b]pyridin-3-yl)benzyl)piperidin-4-yl)-6-cyanonicotinamide], the IC50 was 0.6 to 10 µM.

N#Cc1ccc(C(=O)N2CCN(Cc3ccc(-n4c(-c5cccnc5N)nc5ccc(-c6ccccc6)nc54)cc3)CC2)cn1 [Example 166, 5-(4-(4-(2-(2-Aminopyridin-3-yl)-5-phenyl-3H-imidazo[4,5-b]pyridin-3-yl)benzyl)piperazine-1-carbonyl)picolinonitrile] showed an IC50 of 0.015 to 0.06 µM.

N#Cc1ccc(C(=O)NC2CCN(Cc3ccc(-n4c(-c5cccnc5N)nc5ccc(-c6ccccc6)nc54)cc3)CC2)cn1 [Example 167, N-(1-(4-(2-(2-Aminopyridin-3-yl)-5-phenyl-3H-imidazo[4,5-b]pyridin-3-yl)benzyl)piperidin-4-yl)-6-cyanonicotinamide] was tested, and the IC50 was 0.06 to 0.6 µM.

Compound N#Cc1cccc(C(=O)NCc2ccc(-n3c(-c4cccnc4N)nc4cc(-c5ccccc5)cnc43)cc2)n1 [Example 168, N-(4-(2-(2-Aminopyridin-3-yl)-6-phenyl-3H-imidazo[4,5-b]pyridin-3-yl)benzyl)-6-cyanopicolinamide] has an IC50 of 0.6 to 10 µM.

N#Cc1cc(C(=O)NCc2ccc(-n3c(-c4cccnc4N)nc4cc(-c5ccccc5)cnc43)cc2)ccn1 [Example 169, N-(4-(2-(2-Aminopyridin-3-yl)-6-phenyl-3H-imidazo[4,5-b]pyridin-3-yl)benzyl)-2-cyanoisonicotinamide] gave an IC50 of 0.06 to 0.6 µM.

N#Cc1cc(C(=O)N2CCN(Cc3ccc(-n4c(-c5cccnc5N)nc5ccc(-c6ccccc6)nc54)cc3)CC2)ccn1 [Example 172, 4-(4-(4-(2-(2-Aminopyridin-3-yl)-5-phenyl-3H-imidazo[4,5-b]pyridin-3-yl)benzyl)piperazine-1-carbonyl)picolinonitrile] gave an IC50 of 0.015 to 0.06 µM.

With N#Cc1nc2cc(F)cc(C(=O)NCc3ccc(-n4c(-c5cccnc5N)nc5cccnc54)cc3)c2s1 [Example 173, N-(4-(2-(2-aminopyridin-3-yl)-3H-imidazo[4,5-b]pyridin-3-yl)benzyl)-2-cyano-5-fluorobenzo[d]thiazole-7-carboxamide] the IC50 was < 0.015 µM.

N#Cc1nc2c(C(=O)NCc3ccc(-n4c(-c5cccnc5N)nc5cccnc54)cc3)cc(F)cc2s1 [Example 174, N-(4-(2-(2-aminopyridin-3-yl)-3H-imidazo[4,5-b]pyridin-3-yl)benzyl)-2-cyano-6-fluorobenzo[d]thiazole-4-carboxamide] showed an IC50 of 0.015 to 0.06 µM.

N#Cc1nc2cc(F)cc(C(=O)N3CCN(Cc4ccc(-n5c(-c6cccnc6N)nc6cccnc65)cc4)CC3)c2s1 [Example 175, 7-(4-(4-(2-(2-aminopyridin-3-yl)-3H-imidazo[4,5-b]pyridin-3-yl)benzyl)piperazine-1-carbonyl)-5-fluorobenzo[d]thiazole-2-carbonitrile] gave an IC50 of 0.6 to 10 µM.

N#Cc1nc2cc(F)cc(C(=O)N3CCN(Cc4ccc(-n5c(-c6cccnc6N)nc6ccc(-c7ccccc7)nc65)cc4)CC3)c2s1 [Example 180, 7-(4-(4-(2-(2-Aminopyridin-3-yl)-5-phenyl-3H-imidazo[4,5-b]pyridin-3-yl)benzyl)piperazine-1-carbonyl)-5-fluorobenzo[d]thiazole-2-carbonitrile] showed an IC50 of 0.015 to 0.06 µM.

N#Cc1nc2c(C(=O)N3CCN(Cc4ccc(-n5c(-c6cccnc6N)nc6ccc(-c7ccccc7)nc65)cc4)CC3)cc(F)cc2s1 [Example 181, 4-(4-(4-(2-(2-Aminopyridin-3-yl)-5-phenyl-3H-imidazo[4,5-b]pyridin-3-yl)benzyl)piperazine-1-carbonyl)-6-fluorobenzo[d]thiazole-2-carbonitrile] was tested, and the IC50 was 0.015 to 0.06 µM.

N#Cc1nc2cc(F)cc(C(=O)NC3CCN(Cc4ccc(-n5c(-c6cccnc6N)nc6ccc(-c7ccccc7)nc65)cc4)CC3)c2s1 [Example 182, N-(1-(4-(2-(2-aminopyridin-3-yl)-5-phenyl-3H-imidazo[4,5-b]pyridin-3-yl)benzyl)piperidin-4-yl)-2-cyano-5-fluorobenzo[d]thiazole-7-carboxamide] showed an IC50 of 0.06 to 0.6 µM.
